Results taken from ChEMBL document CHEMBL5247656, “Discovery of a Potent, Cooperative, and Selective SOS1 PROTAC ZZ151 with In Vivo Antitumor Efficacy in KRAS-Mutant Cancers” (J Med Chem, 2023).
pEC50, pIC50: −log10 of the molar value. Activity calls are given as the source filed them. The rule behind the calls is not given here.

Assays:
[1] = biological target: T1, von Hippel-Lindau disease tumor suppressor/Son of sevenless homolog 1 (Homo sapiens) (UniProt Q07889+P40337); experiment: PROTAC activity at VHL/SOS1 in human NCI-H358 cells harboring KRAS G12C mutant with shRNA lentivirus mediated VHL knockdown assessed as induction of SOS1 degradation at 1 uM incubated for 24 hrs by Immunoblot analysis; type: cell-based
T1 sequence (P40337 whole entry, looked up): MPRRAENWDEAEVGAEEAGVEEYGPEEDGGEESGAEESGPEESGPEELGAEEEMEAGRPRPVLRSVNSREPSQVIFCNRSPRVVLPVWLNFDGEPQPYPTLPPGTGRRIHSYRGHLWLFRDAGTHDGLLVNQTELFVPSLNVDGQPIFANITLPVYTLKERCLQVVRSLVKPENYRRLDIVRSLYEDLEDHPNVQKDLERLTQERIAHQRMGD
T1 sequence (Q07889 whole entry, looked up): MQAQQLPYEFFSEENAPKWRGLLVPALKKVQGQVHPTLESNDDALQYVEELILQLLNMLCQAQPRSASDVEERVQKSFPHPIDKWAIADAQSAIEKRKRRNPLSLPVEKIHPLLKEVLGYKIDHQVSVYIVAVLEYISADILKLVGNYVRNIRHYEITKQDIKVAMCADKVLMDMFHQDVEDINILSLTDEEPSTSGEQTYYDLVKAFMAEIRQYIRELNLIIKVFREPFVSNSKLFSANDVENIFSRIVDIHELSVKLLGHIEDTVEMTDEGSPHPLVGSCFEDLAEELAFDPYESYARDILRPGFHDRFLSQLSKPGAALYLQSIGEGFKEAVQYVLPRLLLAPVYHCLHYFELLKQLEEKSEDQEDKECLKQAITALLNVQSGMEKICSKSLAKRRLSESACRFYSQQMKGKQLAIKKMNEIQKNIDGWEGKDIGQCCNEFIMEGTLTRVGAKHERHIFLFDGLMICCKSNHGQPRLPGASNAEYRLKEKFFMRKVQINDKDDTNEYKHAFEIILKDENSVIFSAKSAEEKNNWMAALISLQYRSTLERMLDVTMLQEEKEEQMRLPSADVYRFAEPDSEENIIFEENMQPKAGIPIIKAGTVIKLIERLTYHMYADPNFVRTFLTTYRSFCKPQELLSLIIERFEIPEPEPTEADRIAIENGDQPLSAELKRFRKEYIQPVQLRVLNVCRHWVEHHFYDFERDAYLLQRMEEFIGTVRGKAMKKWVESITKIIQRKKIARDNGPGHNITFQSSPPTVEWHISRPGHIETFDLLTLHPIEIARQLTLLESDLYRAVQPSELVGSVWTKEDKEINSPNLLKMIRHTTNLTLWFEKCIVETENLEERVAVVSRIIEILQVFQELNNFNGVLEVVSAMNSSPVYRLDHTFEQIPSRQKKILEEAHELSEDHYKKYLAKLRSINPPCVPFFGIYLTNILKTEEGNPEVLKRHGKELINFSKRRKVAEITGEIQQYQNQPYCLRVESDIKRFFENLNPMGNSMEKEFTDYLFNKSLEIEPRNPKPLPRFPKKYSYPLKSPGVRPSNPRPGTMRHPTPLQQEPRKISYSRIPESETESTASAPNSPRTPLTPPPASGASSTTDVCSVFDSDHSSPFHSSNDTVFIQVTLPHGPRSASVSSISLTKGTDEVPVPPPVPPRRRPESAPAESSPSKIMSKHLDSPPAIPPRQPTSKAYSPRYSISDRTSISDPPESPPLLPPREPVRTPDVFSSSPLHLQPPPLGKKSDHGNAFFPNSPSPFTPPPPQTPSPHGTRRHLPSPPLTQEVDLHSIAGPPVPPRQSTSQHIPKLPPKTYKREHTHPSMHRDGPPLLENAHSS

[2] = biological target: T1, von Hippel-Lindau disease tumor suppressor/Son of sevenless homolog 1 (Homo sapiens); experiment: (§1) PROTAC activity at VHL/SOS1 in human ASPC1 cells harboring KRAS G12D mutant assessed as induction of SOS1 degradation at 1 uM preincubated with MG132 for 4 hrs followed by compound treatment and measured after 24 hrs by immunoblot analysis; type: cell-based
[3] = biological target: von Hippel-Lindau disease tumor suppressor/Son of sevenless homolog 1 (Homo sapiens, UniProt P40337+Q07889); experiment: PROTAC activity at VHL/SOS1 in human NCI-H358 cells assessed as induction of SOS1 protein degradation incubated for 24 hrs by Immunoblot analysis; type: cell-based
Chain of von Hippel-Lindau disease tumor suppressor/Son of sevenless homolog 1 (Homo sapiens, UniProt P40337+Q07889) (Q07889 whole entry): as the sequence (Q07889 whole entry, looked up) above
Chain of von Hippel-Lindau disease tumor suppressor/Son of sevenless homolog 1 (Homo sapiens, UniProt P40337+Q07889) (P40337 whole entry): as the sequence (P40337 whole entry, looked up) above

[4] = biological target: T1, von Hippel-Lindau disease tumor suppressor/Son of sevenless homolog 1 (Homo sapiens); experiment: PROTAC activity at VHL/SOS1 in human ASPC1 cells harboring KRAS G12D mutant assessed as induction of SOS1 degradation by measuring maximal efficacy at 1 to 2000 nM incubated for 24 hrs by Immunoblot analysis relative to control; type: cell-based; conditions: dose 1-2000 nM
[5] = biological target: T1, von Hippel-Lindau disease tumor suppressor/Son of sevenless homolog 1 (Homo sapiens); experiment: as §1, with “(R)-1-(4-(4-((1-(3-amino-5-(trifluoromethyl)phenyl)ethyl)amino)-7-methoxy-2-methylquinazolin-6-yl)piperidin-1-yl)ethanone” for “MG132”; type: cell-based
[6] = tested on: MIA PaCa-2; experiment: Antiproliferative activity against human MIA PaCa-2 cells harboring KRAS G12C mutant assessed as inhibition of cell proliferation incubated for 7 days by CellTiterGlo-3D proliferation assay; type: functional, cell-based; conditions: MIA PaCa-2, 168 h
[7] = biological target: T1, von Hippel-Lindau disease tumor suppressor/Son of sevenless homolog 1 (Homo sapiens); experiment: In vivo PROTAC activity at VHL/SOS1 in human SW620 cells harboring KRAS G12V mutant xenografted BALB/c nude mouse assessed as decrease in phosphorylated ERK expression at 10 to 20 mg/kg, ip administered once daily for 2 weeks by Immunoblot analysis; type: functional, organism-based; conditions: SW-620, dose 10-20 mg/kg
[8] = Toxicity in BALB/c nude mouse xenografted with human ASPC1 cells harboring KRAS G12D mutant assessed as body weight loss at 10 to 20 mg/kg, ip administered once daily for 3 weeks; type: organism-based; conditions: in vivo, 504 h, dose 10-20 mg/kg
[9] = biological target: T1, von Hippel-Lindau disease tumor suppressor/Son of sevenless homolog 1 (Homo sapiens); experiment: PROTAC activity at VHL/SOS1 in human NCI-H460 cells harboring KRAS Q61H mutant assessed as induction of SOS1 degradation by measuring maximal efficacy at 1 to 2000 nM incubated for 24 hrs by Immunoblot analysis relative to control; type: cell-based; conditions: dose 1-2000 nM
[10] = biological target: T1, von Hippel-Lindau disease tumor suppressor/Son of sevenless homolog 1 (Homo sapiens); experiment: PROTAC activity at VHL/SOS1 in human NCI-H358 cells harboring KRAS G12C mutant assessed as induction of SOS1 degradation at 1 uM incubated for 2 to 4 hrs by Immunoblot analysis; type: cell-based; conditions: time 2-4 hrs
[11] = biological target: T1, von Hippel-Lindau disease tumor suppressor/Son of sevenless homolog 1 (Homo sapiens); experiment: PROTAC activity at VHL/SOS1 in human ASPC1 cells harboring KRAS G12D mutant assessed as induction of SOS1 degradation at 1 uM preincubated with VHL ligand for 4 hrs followed by compound treatment and measured after 24 hrs by immunoblot analysis; type: cell-based
[12] = tested on: SW-620; experiment: Antitumor activity against human SW620 cells harboring KRAS G12V mutant xenografted in BALB/c nude mouse assessed as tumor growth inhibition at 10 mg/kg, ip administered once daily for 2 weeks relative to control; type: functional; conditions: SW-620, 336 h, read-out: TGI
[13] = biological target: T1, von Hippel-Lindau disease tumor suppressor/Son of sevenless homolog 1 (Homo sapiens); experiment: PROTAC activity at VHL/SOS1 in human SW620 cells harboring KRAS G12V mutant assessed as induction of SOS1 degradation at 1 uM incubated for 8 hrs by Immunoblot analysis; type: cell-based
[14] = biological target: T1, von Hippel-Lindau disease tumor suppressor/Son of sevenless homolog 1 (Homo sapiens); experiment: PROTAC activity at VHL/SOS1 in human NCI-H358 cells assessed as induction of SOS1 protein degradation at 0.1 uM incubated for 24 hrs by Immunoblot analysis relative to control; type: cell-based
[15] = biological target: T1, von Hippel-Lindau disease tumor suppressor/Son of sevenless homolog 1 (Homo sapiens); experiment: In vivo PROTAC activity at VHL/SOS1 in human ASPC1 cells harboring KRAS G12D mutant xenografted BALB/c nude mouse assessed as induction of SOS1 degradation administered intraperitoneally once daily for 3 weeks by Immunoblot analysis; type: functional; conditions: dose 10-20 mg/kg, route ip
[16] = biological target: T1, von Hippel-Lindau disease tumor suppressor/Son of sevenless homolog 1 (Homo sapiens); experiment: In vivo PROTAC activity at VHL/SOS1 in human SW620 cells harboring KRAS G12V mutant xenografted BALB/c nude mouse assessed as induction of SOS1 degradation at 10 to 20 mg/kg, ip administered once daily for 2 weeks by Immunoblot analysis; type: functional, organism-based; conditions: SW-620, dose 10-20 mg/kg
[17] = tested on: ASPC1; experiment: Downregulation of ALKBH4 in human ASPC1 cells at 1 uM incubated for 6 hrs by quantitative proteomics analysis; type: functional, cell-based
[18] = AUC in BALB/c mouse at 10 mg/kg, ip measured upto 24 hrs by LC-MS/MS analysis; type: ADME, organism-based; design: time < 24 hrs, dose 10 mg/kg, route ip; conditions: in vivo
[19] = biological target: T1, von Hippel-Lindau disease tumor suppressor/Son of sevenless homolog 1 (Homo sapiens); experiment: In vivo PROTAC activity at VHL/SOS1 in human ASPC1 cells harboring KRAS G12D mutant xenografted BALB/c nude mouse assessed as induction of SOS1 degradation administered intraperitoneally once daily for 3 weeks by immunohistochemistry analysis; type: functional; conditions: dose 10-20 mg/kg, route ip
[20] = tested on: PANC-1; experiment: Antiproliferative activity against human PANC-1 cells harboring KRAS G12D mutant assessed as inhibition of cell proliferation incubated for 7 days by CellTiterGlo-3D proliferation assay; type: functional, cell-based; conditions: PANC-1, 168 h
[21] = biological target: T1, von Hippel-Lindau disease tumor suppressor/Son of sevenless homolog 1 (Homo sapiens); experiment: PROTAC activity at VHL/SOS1 in human SW480 cells harboring KRAS G12V mutant assessed as induction of SOS1 degradation by measuring maximal efficacy at 1 to 2000 nM incubated for 24 hrs by Immunoblot analysis relative to control; type: cell-based; conditions: dose 1-2000 nM
[22] = biological target: von Hippel-Lindau disease tumor suppressor/Son of sevenless homolog 1 (Homo sapiens, UniProt P40337+Q07889, G12C); experiment: PROTAC activity at VHL/SOS1 in human MIA PaCa-2 cells harboring KRAS G12C mutant assessed as induction of SOS1 degradation incubated for 24 hrs by Immunoblot analysis; type: cell-based; conditions: pooled result: one value given for 16 cell lines, strains, targets or settings
Chain of von Hippel-Lindau disease tumor suppressor/Son of sevenless homolog 1 (Homo sapiens, UniProt P40337+Q07889, G12C) (P40337 whole entry, looked up, stated change not applied): as the sequence (P40337 whole entry, looked up) above
Chain of von Hippel-Lindau disease tumor suppressor/Son of sevenless homolog 1 (Homo sapiens, UniProt P40337+Q07889, G12C) (Q07889 whole entry, looked up, stated change not applied): as the sequence (Q07889 whole entry, looked up) above

[23] = biological target: T1, von Hippel-Lindau disease tumor suppressor/Son of sevenless homolog 1 (Homo sapiens); experiment: PROTAC activity at VHL/SOS1 in human NCI-H358 cells assessed as induction of SOS1 protein degradation by measuring maximal efficacy at 2 to 2000 nM incubated for 24 hrs by Immunoblot analysis relative to control; type: cell-based; conditions: dose 2-2000 nM
[24] = tested on: LoVo; experiment: Antiproliferative activity against human LoVo cells harboring KRAS G13D mutant assessed as inhibition of cell proliferation incubated for 7 days by CellTiterGlo-3D proliferation assay; type: functional, cell-based; conditions: 168 h
[25] = biological target: T1, von Hippel-Lindau disease tumor suppressor/Son of sevenless homolog 1 (Homo sapiens); experiment: PROTAC activity at VHL/SOS1 in human NCI-H358 cells harboring KRAS G12C mutant assessed as induction of SOS1 degradation at 1 uM preincubated with VHL ligand for 4 hrs followed by compound treatment and measured after 24 hrs by Immunoblot analysis; type: cell-based
[26] = tested on: ASPC1; experiment: Antiproliferative activity against human ASPC1 cells harboring KRAS G12D mutant assessed as inhibition of cell proliferation incubated for 7 days by CellTiterGlo-3D proliferation assay; type: functional, cell-based; conditions: ASPC1, 168 h

Compound: COc1cc2nc(C)nc(N[C@H](C)c3cc(N)cc(C(F)(F)F)c3)c2cc1C1CCN(C(=O)CCCCCC(=O)N[C@H](C(=O)N2C[C@H](O)C[C@H]2C(=O)N[C@@H](C)c2ccc(-c3scnc3C)cc2)C(C)(C)C)CC1
- Activity [1]: inactive
- Activity [2]: inactive
- pEC50 [3]: 7.80
- Emax [4]: > 95%
- Activity [5]: inactive
- pIC50 [6]: 8.00
- Activity [7]: Active
- Activity [8]: Non-Toxic
- Emax [9]: > 95%
- Activity [10]: Active
- Activity [11]: inactive
- inhibition in vivo at 10 mg/kg [12]: 46.5%
- Activity [13]: Active
- Activity [14]: 83.9%
- Activity [15]: Dose-Dependent Effect
- Activity [16]: Active
- Activity [17]: Active
- AUC at 24 h [18]: 14100 ng·h/mL
- Activity [19]: Dose-Dependent Effect
- pIC50 [20]: 7.86
- Emax [21]: > 95%
- pEC50 [22]: 8.08
- Emax [23]: 100%
- pIC50 [24]: 7.35
- Activity [25]: inactive
- pIC50 [26]: 8.16
